In publication PMC4506051, “Pharmacokinetic Profiles of Active Ingredients and Its Metabolites Derived from Rikkunshito, a Ghrelin Enhancer, in Healthy Japanese Volunteers: A Cross-Over, Randomized Study” (PLoS ONE, 2015):

Experiments:
[1] = Randomized crossover quantitative trial: plasma pharmacokinetics of nine ingredients after rikkunshito 2.5, 5.0 or 7.5 g; settings: for AUC(0-t) / Cmax / Tmax / half-life: human, po; for Tmax: Median t max (range); for Tmax / Median t max (range): median (minimum–maximum)
Procedure, shortened: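 Plasma concentrations of ingredients were measured by LC–MS/MS or GC–MS in samples taken from pre-dose to 48 h. Dosing was a single oral rikkunshito dose (2.5, 5.0 or 7.5 g; three-arm randomized crossover) in fasted healthy Japanese volunteers aged 20–45.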

[2] = Method validation: freeze-thaw stability in plasma
[3] = Method validation: stability in blood
[4] = 7.5 g dosage; cited from earlier work
[5] = Dose proportionality (linearity) test by power model for C max and AUC0-last; settings: for Dose proportionality test using power model, Inference: linear when 90% CI of β included 1, CIlower ≥0.8, and CIupper ≤1.25; for Dose proportionality test using power model, β: rikkunshito 2.5, 5.0 or 7.5 g
Description: The dose proportionality was analyzed via a power model [21, 22]. […] Evaluation of linearity of the dosage-exposure relationship was conducted with Phoenix WinNonlin and SAS 9.2 (SAS Institute, Inc., Cary, NC).

[6] = Method validation: long-term stability in plasma
[7] = Method validation: stability in standard, stock and working solution; settings: for Short-term stability of standard solution, RR: at room temperature for 24 h; for Stock solution stability, RR: 0.1 mg/mL (naringenin 0.5 mg/mL)
[8] = Method validation: post-preparative stability (autosampler); settings: for Post-preparative stability, RR: autosampler set at 4°C
[9] = Method validation: short-term stability in plasma
[10] = rikkunshito 7.5 g single oral, n = 19, geometric mean (95% CI)
[11] = rikkunshito 7.5 g single oral, n = 19

C/C=C/C#CC#C/C=C/c1ccco1 [Atractylodin]
Plasma concentration just before the administration ([1]; all subjects, quantitative trial): BQL | AUC(0-t) ([1]; in vivo, 2.5 g): 0.318 ng·h/mL | Cmax ([1]; in vivo, 2.5 g): 0.531 ng/mL | Tmax ([1]; in vivo, 2.5 g, rikkunshito 2.5 g single oral, n = 21): 0.5 h | AUC(0-t) ([1]; in vivo, 5 g): 1.06 ng·h/mL | Cmax ([1]; in vivo, 5 g): 1.02 ng/mL | Tmax ([1]; in vivo, 5 g, rikkunshito 5.0 g single oral, n = 19): 0.5 h | half-life ([1]; in vivo, 5 g, t 1/2, rikkunshito 5.0 g single oral, n = 19, geometric mean (95% CI)): 0.746 h | AUC(0-t) ([1]; in vivo, 7.5 g): 1.76 ng·h/mL | Cmax ([1]; in vivo, 7.5 g): 1.57 ng/mL | Tmax ([1]; in vivo, 7.5 g, rikkunshito 7.5 g single oral, n = 19): ≤ 1 h | t 1/2 [1, 10]: 0.888 (0.687–1.15) h | Median t max (range) [1, 11]: 0.500 (0.250–1.00) h | Freeze-thaw stability, RR ([2]; atractylodin 0.600 ng/mL, deep freezer, 2 cycles): 109.3% | Freeze-thaw stability, RR ([2]; atractylodin 0.600 ng/mL, deep freezer, 3 cycles): 115.1% | Freeze-thaw stability, RR ([2]; atractylodin 16.0 ng/mL, deep freezer, 2 cycles): 122.6% | Freeze-thaw stability, RR ([2]; atractylodin 16.0 ng/mL, deep freezer, 3 cycles): 133.6% | Stability in blood, remaining ratio (RR) ([3]; atractylodin 1.00 ng/mL, at room temperature for 2 h): 90.3% | Stability in blood, RR ([3]; atractylodin 1.00 ng/mL, on ice for 2 h): 93.8% | Maximum plasma concentration in the preliminary pharmacokinetics study [4]: 1.84 ± 0.626 ng/mL | Dose proportionality test using power model, Inference ([5]; AUC0-last): Nonlinear | Dose proportionality test using power model, β ([5]; AUC0-last): 1.60 | Dose proportionality test using power model, Inference ([5]; Cmax): Linear^a | Dose proportionality test using power model, β ([5]; Cmax): 0.988 | Long-term stability, RR ([6]; atractylodin 0.600 ng/mL, deep freezer, 15 days): 98.4% | Long-term stability, RR ([6]; atractylodin 0.600 ng/mL, deep freezer, 29 days): 88.7% | Long-term stability, RR ([6]; atractylodin 0.600 ng/mL, deep freezer, 57 days): 101.4% | Long-term stability, RR ([6]; atractylodin 0.600 ng/mL, deep freezer, 169 days): 95.2% | Long-term stability, RR ([6]; atractylodin 16.0 ng/mL, deep freezer, 15 days): 98.6% | Long-term stability, RR ([6]; atractylodin 16.0 ng/mL, deep freezer, 29 days): 98.6% | Long-term stability, RR ([6]; atractylodin 16.0 ng/mL, deep freezer, 57 days): 109.4 | Long-term stability, RR ([6]; atractylodin 16.0 ng/mL, deep freezer, 169 days): 102.8% | Short-term stability of standard solution, RR ([7]; atractylodin 1.00 ng/mL): 104.6% | Short-term stability of standard solution, RR ([7]; atractylodin 5000 ng/mL): 106.7% | Post-preparative stability, RE ([8]; atractylodin 0.600 ng/mL, autosampler set at 4°C for 24 h): -3.8% | Post-preparative stability, RE ([8]; atractylodin 0.600 ng/mL, autosampler set at 4°C for 48 h): 4.0% | Post-preparative stability, RE ([8]; atractylodin 16.0 ng/mL, autosampler set at 4°C for 24 h): 9.0% | Post-preparative stability, RE ([8]; atractylodin 16.0 ng/mL, autosampler set at 4°C for 48 h): 8.7% | Short-term stability, RR ([9]; atractylodin 0.600 ng/mL, deep freezer (−90.4°C to −69.5°C) for 4 h): 95.6% | Short-term stability, RR ([9]; atractylodin 0.600 ng/mL, deep freezer for 24 h): 101.5% | Short-term stability, RR ([9]; atractylodin 16.0 ng/mL, deep freezer (−90.4°C to −69.5°C) for 4 h): 101.9% | Short-term stability, RR ([9]; atractylodin 16.0 ng/mL, deep freezer for 24 h): 102.9%

COc1ccc(-c2oc3c(OC)c(OC)c(OC)c(OC)c3c(=O)c2OC)cc1OC [Heptamethoxyflavone, 3,3′,4′,5,6,7,8-heptamethoxyflavone]
AUC(0-t) ([1]; plasma, 2.5 g, AUC0-last, rikkunshito 2.5 g single oral, n = 21, geometric mean (95% CI)): 0.0849 ng·h/mL | Cmax ([1]; plasma, 2.5 g, C max, rikkunshito 2.5 g single oral, n = 21, geometric mean (95% CI)): 0.0388 ng/mL | Tmax ([1]; plasma, 2.5 g, rikkunshito 2.5 g single oral, n = 21): 0.5 h | half-life ([1]; plasma, 2.5 g, t 1/2, rikkunshito 2.5 g single oral, n = 21, geometric mean (95% CI)): 1.92 h | AUC(0-t) ([1]; plasma, 5 g, AUC0-last, rikkunshito 5.0 g single oral, n = 19, geometric mean (95% CI)): 0.124 ng·h/mL | Cmax ([1]; plasma, 5 g, C max, rikkunshito 5.0 g single oral, n = 19, geometric mean (95% CI)): 0.0582 ng/mL | Tmax ([1]; plasma, 5 g, rikkunshito 5.0 g single oral, n = 19): 1 h | half-life ([1]; plasma, 5 g, t 1/2, rikkunshito 5.0 g single oral, n = 19, geometric mean (95% CI)): 1.5 h | AUC(0-t) ([1]; plasma, 7.5 g, AUC0-last, rikkunshito 7.5 g single oral, n = 19, geometric mean (95% CI)): 0.225 ng·h/mL | Cmax ([1]; plasma, 7.5 g, C max, rikkunshito 7.5 g single oral, n = 19, geometric mean (95% CI)): 0.105 ng/mL | Tmax ([1]; plasma, 7.5 g, rikkunshito 7.5 g single oral, n = 19): ≤ 1 h | t 1/2 [1, 10]: 1.51 (1.15–1.98) h | t 1/2 ([1]; rikkunshito 7.5 g single oral, n = 19, geometric mean (95% CI), listed as heptamethoxyflavone): < 10 h | Median t max (range) [1, 11]: 1.00 (0.250–1.02) h | Freeze-thaw stability, RR ([2]; −30°C to −10°C, 3 cycles, higher concentration (800 / 320 / 4000 pg/mL)): 113.5% | Freeze-thaw stability, RR ([2]; −30°C to −10°C, 3 cycles, lower concentration (20 / 8 / 100 pg/mL)): 107.1% | Stability in blood, RR ([3]; on ice 2 h, higher concentration (800 / 320 / 4000 pg/mL)): 92.3% | Stability in blood, RR ([3]; on ice 2 h, lower concentration (20 / 8 / 100 pg/mL)): 97.5% | Stability in blood, RR ([3]; room temperature 2 h, higher concentration (pachymic acid 800, heptamethoxyflavone 320, naringenin 4000 pg/mL)): 96.0% | Stability in blood, RR ([3]; room temperature 2 h, lower concentration (pachymic acid 20, heptamethoxyflavone 8, naringenin 100 pg/mL)): 107.1% | Maximum plasma concentration in the preliminary pharmacokinetics study [4]: 0.253 ± 0.301 ng/mL | Dose proportionality test using power model, Inference ([5]; AUC0-last): Nonlinear | Dose proportionality test using power model, β ([5]; AUC0-last): 0.804 | Dose proportionality test using power model, Inference ([5]; Cmax): Nonlinear | Dose proportionality test using power model, β ([5]; Cmax): 0.817 | Long-term stability, RR ([6]; freezer −30°C to −10°C, 13 days, lower concentration (pachymic acid 20, heptamethoxyflavone 8 pg/mL)): 90.3% | Long-term stability, RR ([6]; freezer, 13 days, higher concentration (pachymic acid 800, heptamethoxyflavone 320 pg/mL)): 113.1% | Long-term stability, RR ([6]; freezer, 39 days, higher concentration (800 / 320 pg/mL)): 99.7% | Long-term stability, RR ([6]; freezer, 39 days, lower concentration (20 / 8 pg/mL)): 85.5% | Long-term stability, RR ([6]; freezer, 228 days, higher concentration (800 / 320 pg/mL)): 87.5% | Long-term stability, RR ([6]; freezer, 228 days, lower concentration (20 / 8 pg/mL)): 85.0% | Working solution stability, RR ([7]; refrigerator 53 days, higher concentration (pachymic acid 10, heptamethoxyflavone 4, naringenin 50 ng/mL)): 100.4% | Working solution stability, RR ([7]; refrigerator 53 days, lower concentration (pachymic acid 0.1, heptamethoxyflavone 0.04, naringenin 0.5 ng/mL)): 109.3% | Working solution stability, RR ([7]; refrigerator 128 days, higher concentration (10 / 4 / 50 ng/mL)): 98.8% | Working solution stability, RR ([7]; refrigerator 128 days, lower concentration (0.1 / 0.04 / 0.5 ng/mL)): 101.6% | Stock solution stability, RR ([7]; refrigerator (1°C to 8°C) 54 days): 54 days: 98.7% | Stock solution stability, RR ([7]; refrigerator (1°C to 8°C) 129 days): 129 days: 92.7% | Post-preparative stability, RR ([8]; 24 h, higher concentration (pachymic acid 800, heptamethoxyflavone 320 pg/mL)): 86.3% | Post-preparative stability, RR ([8]; 24 h, lower concentration (pachymic acid 20, heptamethoxyflavone 8 pg/mL)): 100.3% | Post-preparative stability, RR ([8]; 48 h, higher concentration (800 / 320 / 4000 pg/mL)): 90.8% | Post-preparative stability, RR ([8]; 48 h, lower concentration (20 / 8 / 100 pg/mL)): 96.5% | Short-term stability, RR ([9]; room temperature 25 h, higher concentration (pachymic acid 800, heptamethoxyflavone 320 pg/mL)): 91.2% | Short-term stability, RR ([9]; room temperature 25 h, lower concentration (pachymic acid 20, heptamethoxyflavone 8 pg/mL)): 90.3% | Short-term stability, RR ([9]; room temperature (1°C to 30°C) 4 h, higher concentration (800 / 320 / 4000 pg/mL)): 103.3% | Short-term stability, RR ([9]; room temperature (1°C to 30°C) 4 h, lower concentration (20 / 8 / 100 pg/mL)): 99.5%
